Measurements published in article PMC8428568, “Discovery of re-purposed drugs that slow SARS-CoV-2 replication in human cells” (PLoS Pathogens, 2021).
Structures can show the parent of a compound that is named as a salt. Where two headings read alike, the source gives them in different places.

Experiments:
[1] = test system: SARS-CoV-2-ΔOrf7a-NLuc virus; experiment: microbe, parasite or virus in culture; type: cell-based; settings: for activity at 10 µM: Severe acute respiratory syndrome coronavirus 2, Vero, 72 h, read-out: Mean relative luminescence (n=4); for IC50: Severe acute respiratory syndrome coronavirus 2, Vero cells
recombinant NLuc = type: biochemical
[2] = test system: SARS-CoV-2-ΔOrf7a-NLuc virus; experiment: Post-infection treatment: Vero cells infected 24 hrs with SARS-CoV-2-ΔOrf7a-NLuc, then compound for 48 hrs, bioluminescence; type: cell-based; settings: change in replication relative to DMSO; cells infected 24 hrs, then treated 48 hrs
[3] = test system: SARS-CoV-2-ΔOrf7a-NLuc virus; experiment: microbe, parasite or virus in culture; type: cell-based; settings: for IC50: Severe acute respiratory syndrome coronavirus 2, Huh-7, read-out: HUH7 IC50
[4] = […], 1 = untreated, 0 = total inhibition
[5] = Vero screen, […], relative luminescence
[6] = recombinant NLuc activity relative to DMSO
[7] = recombinant NLuc, first read column
[8] = recombinant NLuc, fourth read column
[9] = recombinant NLuc, third read column
[10] = Vero cells, 10 μM, 1 = DMSO-treated infected cells
[11] = HUH7 screen, […], relative luminescence

| SMILES | % activity in Vero 100PFU screen [1] [%] | activity at 10 µM [1, 4] [%] | Mean relative luminescence (n=4) [1, 5] | Relative Recombinant NLUC (recombinant NLuc; [6]) | Reads Counts per second (read 1) (recombinant NLuc; [7]) [Counts per second] | Reads Counts per second (read 4) (recombinant NLuc; [8]) [Counts per second] | Reads Counts per second (read 3) (recombinant NLuc; [9]) [Counts per second] | PrestoBlue relative viability (Vero cells; [10]) | PrestoBlue relative viability (Vero cells; Vero screen) | PrestoBlue relative viability (HUH7 cells; HUH7 screen) | Mean relative luminescence (n=4) [3, 11] | further results |
| --- | --- | --- | --- | --- | --- | --- | --- | --- | --- | --- | --- | --- |
| O=C1C(O)=C([C@H]2CC[C@H](c3ccc(Cl)cc3)CC2)C(=O)c2ccccc21 [Atovaquone] | 4 | 0.959 | 0.009591 | 0.5902 | 224278 | 216287 | 224646 | 1.55 | 1.55 | 1.15 | 0.05824 | IC50 [1]: 3 µM; Reads Counts per second (read 2) (recombinant NLuc; recombinant NLuc): 226697 Counts per second; Post-infection at IC50 [2]: -25%; IC50 [3]: 7.5 µM |
| CCN(CC)Cc1cc(Nc2ccnc3cc(Cl)ccc23)ccc1O [Amodiaquine, Amodiaquine dihydrochloride dihydrate] | 12 | 10.1 | 0.1007 | 0.9146 | 351271 | 339282 | 344113 | 0.6404 | 0.6404 | 0.7783 | 0.01258 | IC50 [1]: 5 µM; Reads Counts per second (read 2) (recombinant NLuc; recombinant NLuc): 347518 Counts per second; Post-infection at IC50 [2]: -25%; IC50 [3]: 1 µM |
| Cc1cc(C2CCCCC2)n(O)c(=O)c1.NCCO [Ciclopirox ethanolamine] | 7 |  | 0.05436 | 0.961 | 358391 | 361119 | 365653 | 0.5173 | 0.5173 | 0.5023 | 0.04601 | Mean relative luminescence (n=4) [1, 4]: 0.05436 |
| COc1cc2nccc(Oc3ccc(NC(=O)C4(C(=O)Nc5ccc(F)cc5)CC4)cc3)c2cc1OC [Cabozantinib malate (XL184), Cabozantinib malate] | 12 | 10.3 | 0.1026 | 0.8679 | 333265 | 328687 | 329153 | 0.5119 | 0.5119 | 0.8011 | 0.03412 |  |
| O=C(/C=C\n1cnc(-c2cc(C(F)(F)F)cc(C(F)(F)F)c2)n1)NNc1cnccn1 [KPT-330] | 3.73 | 0.545 | 0.005454 | 1.022 | 378225 | 381493 | 389989 | 0.581 | 0.581 | 0.7102 | 0.05859 |  |
| COc1nc2ccc(Br)cc2cc1[C@@H](c1ccccc1)[C@@](O)(CCN(C)C)c1cccc2ccccc12 [Bedaquiline] | 3.54 | 1.02 |  | 0.9285 | 348601 | 351646 | 347079 | 0.8784 |  |  |  | IC50 [1]: 10 µM; Reads Counts per second (read 2) (recombinant NLuc; recombinant NLuc): 355872 Counts per second; Post-infection at IC50 [2]: -30%; IC50 [3]: 5 µM |
| COc1cccc2c1C(=O)c1c(O)c3c(c(O)c1C2=O)C[C@@](O)(C(C)=O)C[C@@H]3O[C@H]1C[C@H](N)[C@H](O)[C@H](C)O1 [Daunorubicin HCl] | 5 | 2.1 | 0.02101 | 0.8615 | 319222 | 328432 | 327409 | 0.6965 | 0.6965 | 0.5186 | 0.006058 |  |
| Clc1ccc(C(Cn2ccnc2)OCc2ccsc2Cl)c(Cl)c1 (stereo not shown) [Tioconazole] | 10 |  |  |  |  |  |  |  |  |  |  | activity at 10 µM [1]: 7.16%; Reads Counts per second (read 1) (recombinant NLuc): 349867 Counts per second; Reads Counts per second (read 3) (recombinant NLuc): 345556 Counts per second; Reads Counts per second (read 4) (recombinant NLuc): 349383 Counts per second; Relative Recombinant NLUC (recombinant NLuc): 0.9221; PrestoBlue relative viability (Vero cells; African green monkey): 1.172; PrestoBlue relative viability (HUH7 cells; human): 1.129; Mean relative luminescence (n=4) [3]: 0.1247 |
| CCOC(=O)C1=C(C)NC(C)=C(C(=O)OC)C1c1cccc([N+](=O)[O-])c1 (stereo not shown) [Nitrendipine] | 8.56 | 7.21 | 0.07211 | 0.06915 | 26271 | 26141 | 26096 | 0.8649 | 0.8649 | 0.6545 | 0.0007292 |  |
| CN(C)CC/C=C1/c2ccccc2Sc2ccc(Cl)cc21.Cl [Chlorprothixene (hydrochloride)] | 4.28 |  | 0.0137 | 0.9574 | 359664 | 361186 | 361391 | 0.8299 | 0.8299 | 0.7623 | 0.03176 | Mean relative luminescence (n=4) [1, 4]: 0.0137 |
| CCOC(=O)C1=C(C)NC(C)=C(C(=O)OCC)C1c1ccccc1/C=C/C(=O)OC(C)(C)C [Lacidipine] | 1.49 | 0.0439 | 0.0004392 | 0.1601 | 61246 | 59492 | 60310 | 0.86 | 0.86 | 0.9247 | 0.02662 |  |
